Experimental data as given in patent US9897592B2, “Methods for identifying arthropod repellents and attractants, and compounds and compositions identified by such methods” (The Regents of the University of California, priority 2013, dated 2018).
Counter-ions that a name gives are not always drawn. Like-named read-outs stand apart in the source and are kept apart here.

What was measured:
[1] = test system: CO2 receptor neuron; assay: Amines: inhibition of CO2 receptor neuron activity; format: cell-based; set-up: % Inhibition: concentration or dose not given beside the values; settings: for Average % Inhibition: dose response
[2] = test system: cpA neuron; assay: Single-sensillum recording: activation of cpA neuron by odorants; format: cell-based, Aedes aegypti; settings: for Activation (spikes s^−1): A. aegypti cpA, 0.5-s pulses, odorants 10^−2 in paraffin oil or water, solvent response subtracted; for Activation (spikes s−1): cpA neuron, 20 compounds from the top 200 SVM ligand predictions, negative values = inhibition, N = 4
Experimental: FIG. 3b depicts representative traces and mean responses of the A. aegypti cpA neuron to 0.5-s pulses of 138 predicted compounds screened using single-sensillum recordings, in which odorants were diluted to 10^−2 in paraffin oil or water, and responses to solvent have been subtracted, n=2-6, and error bars are s.d.
FIG. 5f is a bar graph illustrating the mean responses of the A. aegypti cpA neuron to 0.5-s pulses of 22 newly predicted compounds screened as in FIG. 3b, where salmon bars correspond to odorants found in human odor, odorants were diluted to 10^−2 in paraffin oil or water, and responses to solvent have been subtracted, and n=2-5.
Adult female A. aegypti (Linnaeus 1762) (Rockefeller strain) A. gambiae sensu stricto Giles 1902 (G3 strain), or C. quinquefasciatus Say 1823 were tested 3-12 days post-emergence with single-sensillum extracellular recordings. Chemicals were obtained from Sigma-Aldrich at the highest purity (typically >99%) and were dissolved in paraffin oil or water. […] Response to clean beads was subtracted from the results reported. Only sensilla with cpA activity of <20 spikes s^−1 to negative control were considered for analysis.
(§1) CpA-off and sham treated mosquitoes were pre-treated for 3 min in an upended 1 L glass dish in which 100 μl of fresh butyryl chloride (1%) or paraffin oil was allowed to vaporize for 10-20 min. The odor delivery system for different screens is shown in FIG. 7b; solvent responses during the same recording session were subtracted. Inhibition screen was tested. For the ultra-prolonged activator the 3-s stimulus was delivered from a 10 ml disposable pipette using a CS-55 stimulus controller (Syntech), CO2 was delivered, and responses to subsequent odor stimuli were calculated by subtracting baseline activity 1 s prior to each stimulus. When responses to repeated pulses of cyclopentanone and CO2 were compared, baseline activity between seconds 5 and 6 following each stimulus was subtracted. Spike counting was done manually or with Igor Pro6.2 (Wavemetrics) with the Neuromatic v2.00 macro (by Jason Rothman), and peak-to-peak spike amplitudes for FIG. 8 were analysed in Clampfit 10.3 (Molecular Devices).
From the large list of cpA receptor ligands predicted from Example 3 above, 138 compounds were selected based on desirable criteria for application such as smell, presence in natural sources, human safety profile, and cost to procure. These compounds were tested individually using single-sensillum electrophysiology on the cp sensillum of female A. aegypti, according to the procedure described in Example 1 above.

[3] = test system: cpA neuron; assay: Inhibition screen: odorant overlaid on 0.15% CO2 stimulus, cpA response; format: cell-based, Aedes aegypti
Experimental: Percent inhibition was calculated by comparing mean odorant overlay responses to mean solvent overlay responses, and error bars are s.d.
as §1

[4] = test system: CO2 receptor neuron; assay: Activity of CO2 receptor neuron during spermidine and spermine stimulus windows; format: cell-based; settings: CO2 receptor neuron activity during stimulus window
Experimental: The polyamines were diluted 0.001 to 10% in paraffin oil (PO). Also shown in Table 7 are the activity values of the CO2 receptor neuron during the spermidine and spermine stimulus windows (error bars=s.e.m.).

[5] = inhibition of CO2 receptor neuron activity by amines

Structure (SMILES)	Activation (spikes s^−1) [2] [spikes s^−1]	also measured
CCCCCN [pentan-1-amine]	–	% Inhibition [1, 5]: 100%
NCCCNCCCCNCCCN	–	% Inhibition [1]: 94.81%
CN1CCCC1 [1-methylpyrrolidine]	–	% Inhibition [1, 5]: 100%
CCCCCCN [hexan-1-amine]	–	% Inhibition [1, 5]: 86.61%
CC(=O)c1ccc[nH]1 [1-(1H-pyrrol-2-yl)ethanone]	1.5	–
CC/C=C\CCCCCO [(Z)-non-6-en-1-ol]	2.0	–
Cc1ccc(C)s1 [2,5-dimethylthiophene]	–	Activation (spikes s−1) [2]: 0.3 spikes s−1
CC(=O)OCC1CCCO1 (centres unmarked) [oxolan-2-ylmethyl acetate]	10.0	–
C=CC(CCCCC)OC(=O)CCC (centres unmarked) [oct-1-en-3-yl butanoate]	0.0	–
CCCc1ccc(O)cc1 [4-propylphenol]	−9.0	–
CCCS [propane-1-thiol]	75.0	–
C=CCOC(=O)CCC [prop-2-enyl butanoate]	16.0	–
COCc1ccccc1 [methoxymethylbenzene]	12.0	–
COC(C)=O [methyl acetate]	−50.5	–
CCOC1CCCO1 (centres unmarked) [2-ethoxyoxolane]	6.5	–
CNC [N-methylmethanamine]	–	% Inhibition [1]: 100%
CC(=O)CC(=O)OCc1ccccc1 [benzyl 3-oxobutanoate]	−1.5	–
CC(=O)CCc1ccccc1 [4-phenylbutan-2-one]	0.5	–
C1CCCC1 [cyclopentane]	–	Activation (spikes s−1) [2]: 41.8 spikes s−1
NCCCCNCCCN [N-(3-aminopropyl)-1,4-butanediamine]	–	% Inhibition [1, 5]: 92.25%
CCC(O)c1ccccc1 (centres unmarked) [1-phenylpropan-1-ol]	−3.5	–
CCCC1OCC(C)O1 (centres unmarked) [4-methyl-2-propyl-1,3-dioxolane]	13.0	–
CC(C)=CCC/C(C)=C/C(=O)O [(2E)-3,7-dimethylocta-2,6-dienoic acid]	3.0	–
CC(=O)CC(C)(C)O [4-hydroxy-4-methylpentan-2-one]	2.0	–
CC(C)CCO [3-methylbutan-1-ol]	51.8	–

Structure (SMILES)	Activation (spikes s^−1) [2] [spikes s^−1]	also measured
CCc1cccnc1 [3-ethylpyridine]	42.5	–
CC(N)C(=O)O (centres unmarked) [2-aminopropanoic acid]	−1.5	–
COc1nccnc1C [2-methoxy-3-methylpyrazine]	−27.5	–
CC/C=C/C=O [(E)-pent-2-enal]	−5.0	–
CC(C)CO [2-methylpropan-1-ol]	–	Activation (spikes s−1) [2]: 95.0 spikes s−1
CCCC(=O)OCCc1ccccc1 [2-phenylethyl butanoate]	−5.5	–
OC1CCCC1 [cyclopentanol]	–	Activation (spikes s−1) [2]: 49.8 spikes s−1
CCCC(=O)C(=O)O [2-oxopentanoic acid]	0.0	–
C=C(C)C(=O)OC [methyl 2-methylprop-2-enoate]	45.0	–
CCc1ccc[nH]1 [2-ethyl-1H-pyrrole]	8.5	–
COC(=O)OC [dimethyl carbonate]	73.6	–
CCC=O [propanal]	–	Activation (spikes s−1) [2]: −33.8 spikes s−1
CC(C)SCc1ccco1 [2-(propan-2-ylsulfanylmethyl)furan]	−0.5	–
CCc1cnccn1 [2-ethylpyrazine]	34.5	–
Cc1nccnc1CC(C)C [2-methyl-3-(2-methylpropyl)pyrazine]	1.0	–
CCC=C(C)C=O [2-methylpent-2-enal]	36.5	–
O=Cc1ccoc1 [furan-3-carbaldehyde]	85.0	–
O=C1CCCN1 [pyrrolidin-2-one]	0.0	–
OCC1CCCC1 [cyclopentylmethanol]	47.5	–
Cc1ccc2ncccc2c1 [6-methylquinoline]	9.5	–
CCCOC(C)=O [propyl acetate]	52.6	–
CC(C)=CCCC(C)CCO (centres unmarked) [3,7-dimethyloct-6-en-1-ol]	1.5	–
CCc1nccnc1CC [2,3-diethylpyrazine]	−15.5	–
C=CCCC(C)=O [hex-5-en-2-one]	63.4	–
CCCO [propan-1-ol]	–	Activation (spikes s−1) [2]: 60.8 spikes s−1

Structure (SMILES)	Activation (spikes s^−1) [2] [spikes s^−1]	also measured
CCC/C=C/CO [(E)-hex-2-en-1-ol]	31.0	–
CCC(C)C(N)C(=O)O (centres unmarked) [2-amino-3-methylpentanoic acid]	−2.5	–
O=C1CCCC(=O)C1 [cyclohexane-1,3-dione]	1.5	–
CC(C)=CCCC(C)CC(=O)O (centres unmarked) [3,7-dimethyloct-6-enoic acid]	6.0	–
Cc1cncc(C)c1 [3,5-dimethylpyridine]	7.5	–
C=CCCC [1-pentene]	–	Activation (spikes s−1) [2]: 10.3 spikes s−1
O=COC/C=C/c1ccccc1 [[(E)-3-phenylprop-2-enyl] formate]	3.0	–
CCCc1ccncc1 [4-propylpyridine]	34.0	–
COC(=O)C(C)=O [methyl 2-oxopropanoate]	–	fold lower concentration for comparable inhibition vs previously reported inhibitors such as 1-hexanol [3]: ~10 times; inhibition of cpA activity ([3]; overlaid on 0.15% CO2): strongly inhibited
Cc1csc(C)n1 [2,4-dimethyl-1,3-thiazole]	–	Activation (spikes s−1) [2]: 39.0 spikes s−1
CCC(=O)OCCc1ccccc1 [2-phenylethyl propanoate]	−1.5	–
CCCC(=O)OC [methyl butanoate]	44.5	–
NCCCNCCCCNCCCN [spermine]	–	Average % Inhibition ([1]; 0.001% in paraffin oil): −5.6%; Average % Inhibition ([1]; 0.01% in paraffin oil): −3.2%; Average % Inhibition ([1]; 0.1% in paraffin oil): 76.5%; Average % Inhibition ([1]; 1% in paraffin oil): 94.8%; Average % Inhibition ([1]; 10% in paraffin oil): 95.1%; Ave. Activity ([4]; 0.001% in paraffin oil): 52.0; Ave. Activity ([4]; 0.01% in paraffin oil): 52.3; Ave. Activity ([4]; 0.1% in paraffin oil): 14.0; Ave. Activity ([4]; 1% in paraffin oil): 2.7; Ave. Activity ([4]; 10% in paraffin oil): 2.3
CCCCCc1ccccn1 [2-pentylpyridine]	−6.5	–
NCCCCNCCCN [spermidine]	–	Average % Inhibition ([1]; 0.001% in paraffin oil): −1.0%; Average % Inhibition ([1]; 0.01% in paraffin oil): 10.6%; Average % Inhibition ([1]; 0.1% in paraffin oil): 85.1%; Average % Inhibition ([1]; 1% in paraffin oil): 92.2%; Average % Inhibition ([1]; 10% in paraffin oil): 91.3%; Ave. Activity ([4]; 0.001% in paraffin oil): 62.3; Ave. Activity ([4]; 0.01% in paraffin oil): 55.3; Ave. Activity ([4]; 0.1% in paraffin oil): 10.0; Ave. Activity ([4]; 1% in paraffin oil): 5.3; Ave. Activity ([4]; 10% in paraffin oil): 6.0
C=C(C)CCO [3-methylbut-3-en-1-ol]	–	Activation (spikes s−1) [2]: 64.3 spikes s−1
O=Cc1cnc[nH]1 [1H-imidazole-5-carbaldehyde]	2.5	–
CCC(C)O (centres unmarked) [butan-2-ol]	–	Activation (spikes s−1) [2]: 63.8 spikes s−1
CCC(C)CC(=O)O (centres unmarked) [3-methylpentanoic acid]	3.7	–
COC=O [methyl formate]	–	Activation (spikes s−1) [2]: 59.3 spikes s−1
CC(C)CC#N [3-methylbutanenitrile]	75.8	–
CC(=O)c1ccncc1 [1-pyridin-4-ylethanone]	3.5	–
C/C=C(\C)C(=O)O [(E)-2-methylbut-2-enoic acid]	2.5	–
